For the experiment, the target named is T1, PPARγ (Mus musculus, UniProt P37238).
T1 construct: GAL4 (yeast transcription factor, amino acids 1 to 147); expressed in transfected cells; host or cells: CV-1 cells (African green monkey kidney)
T1 sequence (P37238 174-475 isoform P37238-2): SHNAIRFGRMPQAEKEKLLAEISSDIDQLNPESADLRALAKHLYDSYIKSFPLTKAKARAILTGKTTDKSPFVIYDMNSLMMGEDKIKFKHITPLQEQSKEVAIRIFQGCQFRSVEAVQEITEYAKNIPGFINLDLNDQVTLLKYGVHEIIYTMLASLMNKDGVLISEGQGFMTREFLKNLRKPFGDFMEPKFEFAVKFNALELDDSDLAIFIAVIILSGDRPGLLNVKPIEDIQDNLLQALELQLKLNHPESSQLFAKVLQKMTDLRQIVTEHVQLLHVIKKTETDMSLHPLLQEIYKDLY
The experiment can be described thus: PPARγ ligand activity measurement (GAL4-mPPARγ chimera luciferase reporter assay in CV-1 cells). In kind it is cell-based. Conditions: for Specific activity (PPARγ ligand activity relative to no-treatment control): CV-1 cells, 24 hours, n=4, 1.5 or above = having PPARγ ligand activity; for PPARγ ligand activity comparison with troglitazone: compared with troglitazone at 0.5 μM, compounds at the concentrations of Table 2. How it is done: CV-1 cells (male African green monkey kidney-derived cultured cells) were distributed into wells of a 96-well culture plate (6×10^3 cells/well) and cultured under conditions of 37° C. and 5% CO2 for 24 hours. The medium used was DMEM (Dulbecco's modified Eagle medium; GIBCO) containing 10% FBS (fetal bovine serum), 10 ml/L of penicillin-streptomycin solution (5,000 IU/ml and 5,000 μg/ml, respectively; GIBCO) and 37 mg/L of ascorbic acid (Wako Pure Chemical Industries). After rinsing with OPTI-MEM (GIBCO), the cells were transfected with pM-mPPARγ and 4×UASg-luc using Lipofectamine Plus (GIBCO). […] Each sample in the assay group was dissolved in dimethyl sulfoxide (DMSO), and DMSO was used in the no-treatment control group. The solution or DMSO was added to the medium at a level of 1/1000. After washing the cells with Ca- and Mg-containing phosphate buffered saline (PBS^+), LucLite (Packard) was added to each well, and the luciferase-due luminescence intensity was measured using Packard's TopCount microplate scintillation/luminescence counter. Using pM (plasmid deprived of the PPARγ ligand binding site gene) in lieu of pM-mPPARγ, measurements in a control group were carried out in the same manner as in the above assay group. For each sample, the ratio in mean luminescence intensity (n=4) between the assay group and control group (assay group/control group ratio) was calculated, and the specific activity relative to the no-treatment control group was regarded as the PPARγ ligand activity of the sample. When the specific activity was 1.5 or above, the sample was evaluated as having PPARγ ligand activity.

With `COc1c(/C=C/C(=O)c2cc(O)c(O)c(CC=C(C)C)c2)ccc(O)c1O` [Compound 1, 3,4,3′,4′-tetrahydroxy-2-methoxy-5′-γ,γ-dimethylallylchalcone], the “PPARγ ligand activity comparison with troglitazone” value (“PPARγ ligand activity comparison” for short) is “stronger in PPARγ ligand activity as compared with troglitazone”. Where the note is “10 μg/ml”, the “Specific activity (PPARγ ligand activity relative to no-treatment control)” value is on record as 3.58.

As for `CC(C)=CCc1cc([C@@H]2CC(=O)c3ccc4c(c3O2)C=CC(C)(C)O4)ccc1O` [Compound 2, shinflavanone], the “PPARγ ligand activity comparison” value is “stronger in PPARγ ligand activity as compared with troglitazone”. The “Specific activity (PPARγ ligand activity relative to no-treatment control)” value (10 μg/ml) was determined as 3.62.

`COc1ccc(C2(O)COc3c(ccc4c3C=CC(C)(C)O4)C2=O)c(O)c1` (stereo not drawn) [Compound 3, 3,2′-dihydroxy-4′-methoxy-6″,6″-dimethylpyrano[2″,3″:7,8] isoflavanone]: the “PPARγ ligand activity comparison” value is “stronger in PPARγ ligand activity as compared with troglitazone”. In addition, the “Specific activity (PPARγ ligand activity relative to no-treatment control)” value (20 μg/ml) is 1.90.

Values taken from US20080188549A1, “Composition for Preventing and/or Treating Metabolic Syndrome and Insulin Resistance Syndrome” (Kaneka Corporation, priority 2005, published 2008).
